How the values were obtained:
[1] = system: P. falciparum male gametocytes; experiment: P. falciparum Dual Gamete Formation Assay (PfDGFA), male readout (exflagellation); format: cell-based, Plasmodium falciparum NF54; details: for Average inhibition male (%): average of replicates; for % inhibition male (individual replicates) R1: replicate R1; for % inhibition male (individual replicates) R3: replicate R3; for % inhibition male (individual replicates) R4: replicate R4; for Activity: hit = >50% inhibition in male or female readout in at least 3 replicates, 0 = no class assigned
Method in brief: (§1)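 Mature NF54 gametocytes (day 14) were incubated with compound for 24 h at 37°C under 1% O2/3% CO2, then triggered with xanthurenic acid ookinete medium plus Cy3-anti-Pfs25. Exflagellation was imaged by brightfield; after a further 24 h at 28°C, Pfs25-positive female gametes were imaged by fluorescence and counted by automated image analysis.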

[2] = system: P. falciparum female gametocytes; experiment: P. falciparum Dual Gamete Formation Assay (PfDGFA), female readout (Pfs25-positive female gametes); format: cell-based, Plasmodium falciparum NF54; details: for Average inhibition female (%): average of replicates; for % inhibition female (individual replicates) R1: replicate R1; for % inhibition female (individual replicates) R3: replicate R3; for % inhibition female (individual replicates) R4: replicate R4
Method in brief: as §1

[3] = 2µM, 24h preincubation with gametocytes prior to induction of gametogenesis
[4] = 2µM, 24h preincubation, hits selected on >50% inhibition in the male readout across replicates
[5] = PfDGFA at 2µM, 24h preincubation
[6] = 2µM, 24h preincubation, hits selected on >50% inhibition in the female readout across replicates
[7] = PfDGFA at 2µM, 24h preincubation with gametocytes
[8] = number of replicates with >50% inhibition in the male readout, 2µM
[9] = number of replicates with >50% inhibition in the female readout, 2µM
[10] = PfDGFA at 2µM, 24h preincubation with gametocytes prior to induction of gametogenesis
[11] = 2µM, 24h preincubation, number of replicates with >50% inhibition in the male readout
[12] = 2µM, 24h preincubation, number of replicates with >50% inhibition in the female readout
[13] = 2µM, 24h preincubation with gametocytes

Structure (SMILES) | Average inhibition male (%) [1, 3] [%] | % inhibition male (individual replicates) R1 [1, 3] [%] | % inhibition male (individual replicates) R3 [1, 3] [%] | % inhibition male (individual replicates) R4 [1, 3] [%] | HitlevelM [1, 4] | Activity [1, 5] | Average inhibition female (%) [2, 3] [%] | % inhibition female (individual replicates) R1 [2, 3] [%] | % inhibition female (individual replicates) R3 [2, 3] [%] | % inhibition female (individual replicates) R4 [2, 3] [%] | HitlevelF [2, 6] | other results
c1cc(Cc2ccc(Nc3c4ccccc4nc4ccccc34)cc2)cc(Nc2c3ccccc3nc3ccccc23)c1 [TCMDC-137793] | 2.5 | 17.2 | -11.5 | -9.8 | 0 | 0 | 14.4 | 13.9 | 7.5 | 13.1 | 0 | 
COc1cc2ccccc2c(CNCCCCCCNCc2c(OC)c(OC)cc3ccccc23)c1OC.CS(=O)(=O)O [TCMDC-137795] |  |  |  |  |  |  |  |  |  |  |  | Average inhibition male (%) [1, 7]: 66.8%; % inhibition male (individual replicates) R1 [1, 7]: 59.0%; % inhibition male (individual replicates) R3 [1, 7]: 36.7%; % inhibition male (individual replicates) R4 [1, 7]: 86.9%; HitlevelM [1, 8]: 3; Average inhibition female (%) [2, 7]: 31.5%; % inhibition female (individual replicates) R1 [2, 7]: 34.0%; % inhibition female (individual replicates) R3 [2, 7]: 23.0%; % inhibition female (individual replicates) R4 [2, 7]: 18.6%; HitlevelF [2, 9]: 1
Br.c1cc(C2=NC3CCCCC3N2)ccc1OCCCCCOc1ccc(C2=NC3CCCCC3N2)cc1 (centres unmarked) [TCMDC-137802] |  |  |  |  |  |  |  |  |  |  |  | % inhibition male (individual replicates) R1 [1, 10]: 3.7%; % inhibition male (individual replicates) R3 [1, 10]: 3.4%; % inhibition male (individual replicates) R4 [1, 10]: -3.8%; Average inhibition male (%) [1, 5]: -1.7%; % inhibition female (individual replicates) R1 [2, 10]: 13.0%; % inhibition female (individual replicates) R3 [2, 10]: -14.3%; % inhibition female (individual replicates) R4 [2, 10]: -0.44%; Average inhibition female (%) [2, 5]: 3.6%
Nc1nc(N)c2c(ccc3c2ccn3Cc2cccc(F)c2)n1 [TCMDC-137810] | 57.9 | 71.9 | 59.3 | 64.6 |  |  | 73.3 | 69.9 | 85.4 | 66.6 |  | HitlevelM [1, 11]: 3; HitlevelF [2, 12]: 4
COc1cccc(Cn2ccc3c4c(N)nc(N)nc4ccc32)c1 [TCMDC-137811] | 42.3 | 37.2 | 47.4 | 43.4 |  |  | 75.4 | 72.3 | 74.8 | 79.8 |  | HitlevelM [1, 11]: 0; HitlevelF [2, 12]: 4
CS(=O)(=O)O.FC(F)(F)COc1ccc2ccccc2c1CNCCCCCCNCc1c(OCC(F)(F)F)ccc2ccccc12 [TCMDC-137816] |  |  |  |  |  |  |  |  |  |  |  | Average inhibition male (%) [1, 13]: 91.3%; % inhibition male (individual replicates) R1 [1, 13]: 97.0%; % inhibition male (individual replicates) R3 [1, 13]: 82.6%; % inhibition male (individual replicates) R4 [1, 13]: 90.9%; Average inhibition female (%) [2, 13]: 42.8%; % inhibition female (individual replicates) R1 [2, 13]: 37.4%; % inhibition female (individual replicates) R3 [2, 13]: 26.9%; % inhibition female (individual replicates) R4 [2, 13]: 39.6%
N#Cc1ccc(Cn2ccc3c4c(N)nc(N)nc4ccc32)cc1 [TCMDC-137820] | 57.5 | 46.1 | 51.2 | 67.4 |  |  | 75.9 | 77.9 | 77.4 | 70.8 |  | HitlevelM [1, 11]: 3; HitlevelF [2, 12]: 4
COc1cc(CNCCCCCCNCc2cc(OC)cc3ccccc23)c2ccccc2c1.CS(=O)(=O)O [TCMDC-137823] | 27.1 | 24.9 | 12.3 | 38.9 | 0 | 0 | 15.2 | 16.9 | 3.5 | 20.5 | 0 | 
CCCCOc1cc(CNCCCCCCNCc2cc(OCCCC)cc3ccccc23)c2ccccc2c1.CS(=O)(=O)O [TCMDC-137824] | 32.5 | 29.7 | -0.8 | 46.2 |  |  | 23.5 | 22.5 | 5.4 | 30.9 |  | HitlevelM [1, 11]: 1; HitlevelF [2, 12]: 0
COc1c(OC)c(OC)c2ccccc2c1CNCCCCCCNCc1c(OC)c(OC)c(OC)c2ccccc12.Cl [TCMDC-137827] |  |  |  |  |  |  |  |  |  |  |  | Average inhibition male (%) [1, 7]: 67.6%; % inhibition male (individual replicates) R1 [1, 7]: 64.0%; % inhibition male (individual replicates) R4 [1, 7]: 54.3%; HitlevelM [1, 8]: 3; Average inhibition female (%) [2, 7]: 37.0%; % inhibition female (individual replicates) R1 [2, 7]: 45.3%; % inhibition female (individual replicates) R3 [2, 7]: 25.5%; % inhibition female (individual replicates) R4 [2, 7]: 33.3%; HitlevelF [2, 9]: 0
CCN(C)C(=O)n1ncc2c3c(N)nc(N)nc3ccc21 [TCMDC-137828] |  |  |  |  |  |  |  |  |  |  |  | % inhibition male (individual replicates) R1 [1, 10]: 33.9%; % inhibition male (individual replicates) R3 [1, 10]: 38.2%; % inhibition male (individual replicates) R4 [1, 10]: 21.2%; Average inhibition male (%) [1, 5]: 34.9%; % inhibition female (individual replicates) R1 [2, 10]: 0.36%; % inhibition female (individual replicates) R3 [2, 10]: -2.4%; % inhibition female (individual replicates) R4 [2, 10]: 3.1%; Average inhibition female (%) [2, 5]: -0.8%
COc1c(CNCCCCCCNCc2c(OC)c(OC)c3ccccc3c2OC)c(OC)c2ccccc2c1OC.CS(=O)(=O)O [TCMDC-137837] | 26.0 | 25.5 | 24.6 | 53.4 | 1 | 0 | 13.6 | 13.3 | 14.5 | 16.6 | 0 | 
C#CCOc1ccc2ccccc2c1CNCCCCCCNCc1c(OCC#C)ccc2ccccc12.CS(=O)(=O)O [TCMDC-137838] |  |  |  |  |  |  |  |  |  |  |  | Average inhibition male (%) [1, 13]: 97.5%; % inhibition male (individual replicates) R1 [1, 13]: 98.4%; % inhibition male (individual replicates) R3 [1, 13]: 92.7%; % inhibition male (individual replicates) R4 [1, 13]: 100.9%; Average inhibition female (%) [2, 13]: 57.5%; % inhibition female (individual replicates) R1 [2, 13]: 37.7%; % inhibition female (individual replicates) R3 [2, 13]: 36.7%; % inhibition female (individual replicates) R4 [2, 13]: 72.5%
COc1cc2ccccc2c(OC)c1CCNCCCCNCCc1c(OC)cc2ccccc2c1OC.CS(=O)(=O)O [TCMDC-137842] | 40.8 | 35.9 | -0.8 | 68.2 | 2 | 0 | 13.3 | 16.6 | -7.2 | 21.8 | 0 | 
C/C=C/COc1ccc2ccccc2c1CNCCCCCCCCNCc1c(OC/C=C/C)ccc2ccccc12.CS(=O)(=O)O.O [TCMDC-137844] | 25.4 | 38.1 | 0.24 | 61.8 |  |  | 23.4 | 25.6 | 6.4 | 40.3 |  | HitlevelM [1, 11]: 1; HitlevelF [2, 12]: 0
CC(C)c1cc2c(ccc3nc(N)nc(N)c32)[nH]1 [TCMDC-137847] | 0.8 | 37.4 | -19.2 | -31.8 | 0 | 0 | 11.1 | 19.6 | 6.0 | 11.3 | 0 | 
CCc1cc2c3c(N)nc(N)nc3ccc2n1CC [TCMDC-137851] | -13.9 | 35.0 | -28.2 | -58.5 | 0 | 0 | 9.4 | 20.5 | -5.1 | 10.4 | 0 | 
